Data on eight molecules can be found in US7309591B2, “Method for the production of resveratrol in cell cultures” (Universidad de Alicante, priority 2002, dated 2007).

Data set [1] concerns Vitis vinifera var. Gamay rouge cells. Description: Elicitation of t-resveratrol production in grapevine cell suspension, Gamay rouge. In kind it is cell-based. To be noted: cyclodextrin 50 mmol/liter in medium (BETA 15 mmol/liter); 96 hours of incubation; occasional presence of other unidentified phenolic products. The protocol:
Vitis vinifera var. Gamay rouge: A grapevine cell line established by J. C. Pech in 1978 (ENSAT, Toulouse, France) from immature fruits of grapevine from the cultivar Gamay Fréaux has been used. The calluses were kept in 250 ml flasks containing 80 ml of Gamborg B5 basal medium (Gamborg et al. 1968. Experimental Cell Research 50:151-158) supplemented with Morel vitamins (Morel, G. 1970. “Le probléme de la transformation tumorale chez les végétaux”. Physiologie Végétale, 8:189-204), casein hydrolysate (0.25 g/l), saccharose (20 g/l) as carbonated source, and α-nafthalenacetic acid (0.1 mg/l) and kinetin (0.2 mg/l) as hormones (hereinafter, medium). This medium is adjusted to pH 6 and sterilized by applying humid heat (autoclave) for 20 min at a pressure of 121.2 kPa (1.2 athm), acquiring a solid consistency by the addition of purified agar (8 g/l) when the medium is cooled. Cell suspensions were started, from friable calluses obtained in the above described medium, in 250 ml flasks containing 80 ml of agar-free medium. The cells in liquid medium were kept in an orbital shaker at 100 rpm and 25° C., under a photoperiod of 14 hours of light (6 W/m^2) and 10 h in the dark.
(§1) For each elicitation experience, 4 g of fresh weight of cells previously washed with fresh medium and filtered were taken under sterile conditions. These cells were transferred to 50 ml flasks and replaced by the addition of 10 ml of sterile fresh medium supplemented in each case with the cyclodextrins stated below:
(§2) The flasks were incubated under the same conditions as described above for time periods ranging from 24 and 96 hours.
(§3) Once the incubation time had been completed, the cells were separated from the medium by filtration by making a slight vacuum with the help of a water pump, and the cells and the filtrate were separately collected.
(§4) For this, an aliquot of the filtrate was diluted in fresh medium, filtered through a 0.2 μm Anopore filter, and 20 μl of filtrate were injected in a LiChrospher 100 RP-18 column (250×4 mm, particle size 5 μm). Two types of solvents were used as mobile phase: solvent A, 0.05% trifluoroacetic acid in water, and solvent B, 0.05% trifluoroacetic acid in methanol:acetonitrile 60:40 vol/vol. The sample is eluted at a flow rate of 1 ml/min of the following solvent mixture: 0 min, 10% B; 5 min, 15% B; 40 min, 35% B; 45 min, 65% B; 50 min, 65% B; 55 min, 10% B; and at a column temperature of 35° C. (Dalluge et al., 1998. J. Chromatogr. A 793:265-274). […] Gamay corresponding to the start of incubation and to 96 hours of incubation in a culture medium containing RAMEB.
For routine analysis of t-resveratrol, an aliquot of the filtrate was diluted with fresh medium and its ultraviolet absorption spectrum was recorded using a Kontron Uvikon 940 spectrophotometer taking as reference the fresh medium. The concentration of t-resveratrol in the supernatant was estimated using a molar extinction coefficient at 306 nm of 26,800 M^−1 cm^−1 (Siemann, E. H. and Creasy, L. L. 1992, “Concentration of the phytoalexin resveratrol in wine”, Am. J. Enol. Vitic. 43:49-52). […] Gamay corresponding to the start of incubation and to 96 hours of incubation in a culture medium containing RAMEB.
The results obtained, expressed as mg of t-resveratrol per litre of filtrate, eliciting the cells with different cyclodextrins at concentrations of 50 mmol/litre of culture medium (except for BETA, for which the concentration corresponds to 15 mmol/litre due to its lower solubility), after 96 hours of incubation are given in Table 1.

In data set [2] the test system is Vitis vinifera var. Monastrell green line cells. Description: Elicitation of t-resveratrol production in grapevine cell suspension, Monastrell green. Type of data set: cell-based. As to conditions: cyclodextrin 50 mmol/liter in medium (BETA 15 mmol/liter); 96 hours of incubation; heavy presence of cis-resveratrol. The protocol: (§5) Vitis vinifera var. Monastrell: Two grapevine cell lines of cultivar Monastrell, one established in the dark (albino line) and another established in the presence of white light (green line) from immature fruits have been used. All manipulations and incubations for the green line were carried out in lighting conditions, but for the albino line, incubations for callus generation, development, and growth, as well as incubations of cell suspensions, were performed in the dark. For this, immature grapes approximately 5 mm in diameter were superficially sterilized by immersion in a 7% calcium hypochlorite solution for 15 minutes. After this time, and always under sterile conditions, grapes were washed 3 times with sterile bidistilled water, their seeds removed, and were divided into 4 portions. These portions (explants) were deposited until microcalluses appeared in a Petri dish containing a solid culture medium based on the medium reported by Murashige and Skoog (Murashige, T and Skoog, F. 1962. “A revised medium for rapid growth and bioassays with tobacco tissue cultures”. Physiologia Plantarum 15:473-497), supplemented with Morel vitamins, casein hydrolysate (0.25 g/l), saccharose (30 g/l) as carbonated source, and α-nafthalenacetic acid (0.1 mg/l) and kinetin (0.2 mg/l) as hormones, 8 g/l of purified agar, and adjusted to pH 6. Finally, these microcalluses were transferred to 250 ml flasks containing 80 ml of this same solid culture medium for callus development. Cell suspensions were started, from friable calluses, in 250 ml flasks containing 80 ml of Gamborg B5 basal medium, supplemented with Morel vitamins, casein hydrolysate (0.25 g/l), saccharose (20 g/l) as carbonated source, and α-nafthalenacetic acid (0.1 mg/l) and kinetin (0.2 mg/l) as hormones, in the absence of agar. The cells in liquid medium were kept in an orbital shaker at 100 rpm and 25° C.; the green line was submitted to a photoperiod of 14 hours of light (6 W/m^2) and 10 h in the dark, whereas the albino line was kept in the dark at all times.
as §1, §2, §3, §4
(§6) For routine analysis of t-resveratrol, an aliquot of the filtrate was diluted with fresh medium and its ultraviolet absorption spectrum was recorded using a Kontron Uvikon 940 spectrophotometer taking as reference the fresh medium. The concentration of t-resveratrol in the supernatant was estimated using a molar extinction coefficient at 306 nm of 26,800 M^−1 cm^−1 (Siemann, E. H. and Creasy, L. L. 1992, “Concentration of the phytoalexin resveratrol in wine”, Am. J. Enol. Vitic. 43:49-52). […]

Data set [3] has as its system grapevine cells in suspension. Description: Effect of cyclodextrins on grapevine cells in suspension (overall comparison, toxicity). In kind it is cell-based, Vitis vinifera. As to conditions: for Capacity to induce the synthesis of t-resveratrol compared with the other cyclodextrins tested: grapevine cells in suspension, 96 hours. The protocol:
as §1, §2
It is also noted that the intensity of the effect depends on the variety and the cell line (greater production is seen in the albino Monastrell variety than in the green Monastrell variety).

In data set [4] the test system is Vitis vinifera var. Monastrell albino line cells. Description: Elicitation of t-resveratrol production in grapevine cell suspension, Monastrell albino. To be noted: cyclodextrin 50 mmol/liter in medium (BETA 15 mmol/liter); 96 hours of incubation; kept in the dark. In kind it is cell-based. The protocol:
as §5, §1, §2, §3, §4, §6

Data set [5] can be described thus: Solubility of t-resveratrol in an aqueous medium. Type of data set: physicochemical. To be noted: 25° C., 5 days in the dark. How it is done:
Five millilitres of a 11,410 mg/l solution of t-resveratrol (99% pure according to the supplier; Sigma, Madrid) in ethanol were placed in an spherical bottle, and ethanol was evaporated to dryness with a N2 current. Residual ethanol was eliminated by keeping the bottle under low pressure overnight. Five millilitres of aqueous medium were added to the solid residue, and the bottle was tightly closed and kept under shaking at 25° C. for 5 days in the dark. The resulting suspension was filtered through 0.2 μm Anopore filters, and the concentration of t-resveratrol in the filtrate was analyzed by UV spectroscopy.
The concentration of t-resveratrol in the filtrates, expressed as mg oft-resveratrol per litre of filtrate, is given in Table 2.

The subject of data set [6] is crypt formation in aberrant colon. To be noted: rat model treated with a carcinogenic agent (azoxymethane); cited from earlier work.
The test system of data set [7] is grapevine cell suspensions (Vitis vinifera var. Gamay). To be noted: cited from earlier work.

In the case of “Randomly methylated β-cyclodextrin [RAMEB]”, the “Trans-Resveratrol (mg/l) in filtrate, Gamay Rouge” value (“Trans-Resveratrol … Gamay Rouge” for short) in data set [1] was found to be 3320 mg/L. The “Trans-Resveratrol (mg/l) in filtrate, Monastrell green” value (shortened to “Trans-Resveratrol … Monastrell green”) in data set [2] came to 101 mg/L. In data set [3], the “Capacity to induce the synthesis of t-resveratrol compared with the other cyclodextrins tested” value is recorded as “greater capacity to induce the synthesis of t-resveratrol”. Further, the “Trans-Resveratrol (mg/l) in filtrate, Monastrell albino” value (“Trans-Resveratrol … Monastrell albino” for short) in data set [4] is 5027 mg/L.
With “Randomly methylated β-cyclodextrin [CAVASOL ® W7 M]”, the “Trans-Resveratrol … Gamay Rouge” value in data set [1] was 3280 mg/L. Moreover, in data set [2], the “Trans-Resveratrol … Monastrell green” value was found to be 92 mg/L. Also, the “Capacity to induce the synthesis of t-resveratrol compared with the other cyclodextrins tested” value in data set [3] is “greater capacity to induce the synthesis of t-resveratrol”. Besides, in data set [4], the “Trans-Resveratrol … Monastrell albino” value amounted to 4963 mg/L.
Consider `OC[C@H]1O[C@@H]2O[C@H]3[C@H](O)[C@@H](O)[C@@H](O[C@H]4[C@H](O)[C@@H](O)[C@@H](O[C@H]5[C@H](O)[C@@H](O)[C@@H](O[C@H]6[C@H](O)[C@@H](O)[C@@H](O[C@H]7[C@H](O)[C@@H](O)[C@@H](O[C@H]8[C@H](O)[C@@H](O)[C@@H](O[C@H]1[C@H](O)[C@H]2O)O[C@@H]8CO)O[C@@H]7CO)O[C@@H]6CO)O[C@@H]5CO)O[C@@H]4CO)O[C@@H]3CO` [BETA, β-cyclodextrin], for which the “Trans-Resveratrol … Gamay Rouge” value in data set [1] amounted to 30 mg/L. The “Trans-Resveratrol … Monastrell green” value in data set [2] stood at 0 mg/L. The “Trans-Resveratrol … Monastrell albino” value in data set [4] amounted to 60 mg/L.
For “(2-hydroxy) propyl-β-cyclodextrin [HYPROB]”, in that order: 990 mg/L, 90 mg/L and 4110 mg/L.
For `Oc1ccc(/C=C/c2cc(O)cc(O)c2)cc1` [t-resveratrol, trans-3,5,4′-trihydroxystilbene], the Solubility of t-resveratrol in data set [5] (Culture medium supplemented with 6.55 mg/ml of CAVASOL ® W7 M) is on record as 767 mg t-resveratrol/liter filtrated; in data set [5] (Culture medium supplemented with 6.55 mg/ml of DIMEB), 735 mg t-resveratrol/liter filtrated; in data set [5] (Culture medium supplemented with 6.55 mg/ml of RAMEB), 786 mg t-resveratrol/liter filtrated; in data set [5] (Culture medium) it was 48.8 mg t-resveratrol/liter filtrated; in data set [5] (Ultrapure water), 36.5 mg t-resveratrol/liter filtrated. The “Inhibition of crypt formation in aberrant colon” value in data set [6] was “significant inhibition of crypt formation”.
`OC[C@H]1O[C@H](O[C@H]2[C@H](O)[C@@H](O)[C@@H](OC[C@H]3O[C@@H]4O[C@H]5[C@H](O)[C@@H](O)[C@@H](O[C@H]6[C@H](O)[C@@H](O)[C@@H](O[C@H]7[C@H](O)[C@@H](O)C(O[C@H]8[C@H](O)[C@@H](O)[C@@H](O[C@H]9[C@H](O)[C@@H](O)[C@@H](O[C@H]%10[C@H](O)[C@@H](O)[C@@H](O[C@H]3[C@H](O)[C@H]4O)O[C@@H]%10CO)O[C@@H]9CO)O[C@@H]8CO)O[C@@H]7CO)O[C@@H]6CO)O[C@@H]5CO)O[C@@H]2CO)[C@H](O)[C@@H](O)[C@@H]1O` [MALTOSYL, Maltosyl-β-cyclodextrin]: in data set [1], the “Trans-Resveratrol … Gamay Rouge” value worked out at 390 mg/L. Also, the “Trans-Resveratrol … Monastrell green” value in data set [2] turned out to be 20 mg/L. Moreover, the “Trans-Resveratrol … Monastrell albino” value in data set [4] was 660 mg/L.
`COC[C@H]1O[C@@H]2O[C@H]3[C@H](O)[C@@H](OC)[C@@H](O[C@H]4[C@H](O)[C@@H](OC)[C@@H](O[C@H]5[C@H](O)[C@@H](OC)[C@@H](O[C@H]6[C@H](O)[C@@H](OC)[C@@H](O[C@H]7[C@H](O)[C@@H](OC)[C@@H](O[C@H]8[C@H](O)[C@@H](OC)[C@@H](O[C@H]1[C@H](O)[C@H]2OC)O[C@@H]8COC)O[C@@H]7COC)O[C@@H]6COC)O[C@@H]5COC)O[C@@H]4COC)O[C@@H]3COC` [DIMEB, Heptakis (2,6-di-O-methyl)-β-cyclodextrin]: the “Ability to induce synthesis of t-resveratrol excreted into the culture medium” value in data set [7] is given as “induce”. The “Trans-Resveratrol … Gamay Rouge” value in data set [1] worked out at 3060 mg/L. Moreover, the “Trans-Resveratrol … Monastrell green” value in data set [2] came out at 90 mg/L. Besides, the “Trans-Resveratrol … Monastrell albino” value in data set [4] came to 4680 mg/L.
As for “sulphated β-cyclodextrin sodium salt [SULFOB]”, the “Trans-Resveratrol … Gamay Rouge” value in data set [1] came out at 0 mg/L. Further, the “Trans-Resveratrol … Monastrell green” value in data set [2] came out at 0 mg/L. Further, the “Toxicity to grapevine cells in suspension” value in data set [3] (50 mmol/liter in culture medium) was “toxic and kill the cells”. The “Trans-Resveratrol … Monastrell albino” value in data set [4] came out at 0 mg/L.
